Data from US9320772B2, “Herbal composition for treating anxiety related conditions” (OPMOP LTD., priority 2010, dated 2016).
“Also recorded” adds a separate entry of the source.

Experiments:
[1] = system: C57BL/6 mice; experiment: Open Field Test in mice after chronic stress (MSP); format: in vivo
Method: C57BL/6 male and female infant mice were subjected to chronic stress (MSP) by separation from the dam for 6 hours per day from day 1 to day 14. Anxiety behavior was tested after different anxiolytic treatments. The mice received a daily i.p. injection from day 28 of age for two weeks, of one of the following drugs: Citalopram (10 mg/kg), or the adaptogenic composition of the invention comprising Hawthorn fruit, wheat grain and Lilly Bulb (10 mg/kg). The anxiety behavior was tested in the Open Field Test.

[2] = system: Corticosterone; experiment: Corticosterone levels following acute restraint stress (RIA), treatment during stress; format: in vivo, mice; conditions: escitalopram group (15 mg/kg as previously described), 28 days during stress; control 80.9 ng/ml; p<0.05
Method: (§1) The day following parturition, postnatal day (PND) 1, the litters underwent a Maternal Separation (MS) procedure that was carried out once a day from PND 1-14. At the age of 21 days, all pups were weaned and sexed. 90 male mice were tagged, weighed, and separated into cages of up to five mice per cage, assigned randomly into four groups of treatment as previously described. Between the age of 28 and 56 days (Adolescence), mice were subjected to an Unpredictable Mild Stress paradigm. In this experiment three different stressors were used—all mice were subjected once a day to one of the following stressors: restrainers; placement in an empty cage with water at the bottom; or inversion of light/dark cycle. To prevent habituation and to provide an unpredictable feature to the stressors, every day different stressor was administered for four hours, at different time points of the day. During the entire stress paradigm, drugs were administrated through i.p. injection of the relevant treatment, for the duration of 28 days. Upon reaching adulthood and following four weeks of treatment, behavior, peripheral hormones and brain monoamines were measured in order to assess the effects of the novel treatment. In order to estimate the endocrinological reaction to acute stress, mice were first placed in restrainers. […]

[3] = system: mice subjected to maternal separation and unpredictable mild stress; experiment: Sucrose test, treatment during stress; format: in vivo; conditions: escitalopram group (15 mg/kg as previously described) i.p., 28 days during stress; control (saline) 51 ml; p<0.05
Method: as §1, with “[…] After” for “In order to estimate”, “12 hours, the amount of ordinary water, sucrose water and food eaten by the mouse, was calculated.” for “endocrinological reaction to acute stress, mice were first placed in restrainers.”

[4] = system: ICR mice; experiment: Elevated plus maze after maternal separation and unpredictable chronic mild stress, treatment after stress; format: in vivo; conditions: stressed ICR mice, 15 mg/kg i.p., 21 days, p<0.05
Method: On the day of parturition, PND 0 (postnatal day), litters were randomly assigned to undergo MS or to be standard facility reared (SFR) controls. SFR animals were left undisturbed during the entire stress manipulation (both maternal separation and unpredictable chronic mild stress manipulation), except for routine cage maintenance performed once a week. MS procedure was carried out once per day from PND 1-14. The MS procedure was performed by removing the pups from the home cage and placing them together in a separate clean cage placed on a heating pad (30-33° C.) in order to keep the pups in a temperature close to the dam's natural body temperature. 6 hours later, pups were returned to their home cage. […] Elevated plus-maze: Each mouse was placed in the center of the elevated plus maze and his behavior was recorded for the duration of 5 minutes. […] Subsequent to the stress manipulations, anxiety-like behavior was assessed via the elevated plus maze in order to assess the effect of the stress manipulations. […] Following three weeks of treatment with the relevant drug or vehicle, anxiety-like behavior was assessed via the elevated plus maze. 48 hours thereafter and while mice were still receiving treatment, blood samples were collected following acute stress and Corticosterone levels were measured via radio immunoassay (RIA) assay. […]

[5] = system: Corticosterone; experiment: Corticosterone levels following acute restraint stress (RIA), treatment after chronic stress; format: in vivo; conditions: stressed ICR mice, 15 mg/kg i.p., 3 weeks, p<0.05 adaptogenic mixture, p<0.01 escitalopram
Method: In order to estimate the endocrinology reaction to acute stress mice were first placed in restraint. Restraint stress is a well documented stressor that initiates an acute transient increase in plasma ACTH and Corticosterone, usually peaking during the course of a 60 min stress exposure. Therefore, following 60 minutes of subjection to restraint stress, blood samples were collected into EDTA-coated tubes from the facial vein. All blood samples were kept on ice and later centrifuged for 10 min at 10000 rpm at 4°. Plasma was transferred to clean, labeled 1.5 ml microcentrifuge tubes. All plasma samples were stored frozen at −20 C.° until the determination of Corticosterone via RIA. Subsequent to the stress manipulations, anxiety-like behavior was assessed via the elevated plus maze in order to assess the effect of the stress manipulations. […] Following three weeks of treatment with the relevant drug or vehicle, anxiety-like behavior was assessed via the elevated plus maze. 48 hours thereafter and while mice were still receiving treatment, blood samples were collected following acute stress and Corticosterone levels were measured via radio immunoassay (RIA) assay. […] Anxiety-related behaviors were assessed using the elevated-plus maze and indicated anxiogenic effect of the stress manipulation. […]

[6] = system: mice subjected to maternal separation and unpredictable mild stress; experiment: Elevated plus maze, treatment during stress; format: in vivo; conditions: 15 mg/kg i.p., 28 days during stress; control (saline) 44 seconds; p<0.05
Method: as §1, with “treatment.” for “treatment. In order to estimate the endocrinological reaction to acute stress, mice were first placed in restrainers.”

[7] = system: Brain-derived neurotrophic factor (BDNF); experiment: Hippocampal BDNF levels by EIA, treatment during stress; format: in vivo, mice; conditions: escitalopram group (15 mg/kg as previously described), 28 days during stress; control (saline) 12 pc/μg; p<0.05
Method: The day following parturition, postnatal day (PND) 1, the litters underwent a Maternal Separation (MS) procedure that was carried out once a day from PND 1-14. At the age of 21 days, all pups were weaned and sexed. 90 male mice were tagged, weighed, and separated into cages of up to five mice per cage, assigned randomly into four groups of treatment as previously described. Between the age of 28 and 56 days (Adolescence), mice were subjected to an Unpredictable Mild Stress paradigm. In this experiment three different stressors were used—all mice were subjected once a day to one of the following stressors: restrainers; placement in an empty cage with water at the bottom; or inversion of light/dark cycle. To prevent habituation and to provide an unpredictable feature to the stressors, every day different stressor was administered for four hours, at different time points of the day. During the entire stress paradigm, drugs were administrated through i.p. injection of the relevant treatment, for the duration of 28 days. Upon reaching adulthood and following four weeks of treatment, behavior, peripheral hormones and brain monoamines were measured in order to assess the effects of the novel treatment.
At the end of the experiment, all treated mice were sacrificed. The brains of the mice were placed in a mold on ice. […] Brain-derived neurotrophic factor (BDNF) was measured by EIA. […]

[8] = system: BALB mice; experiment: Novel open field test after acute stress (Yohimibine injection); format: in vivo; conditions: 15 mg/kg/day i.p., three weeks of treatment, after Yohimibine i.p. 1.25 mg/kg, p<0.05 adaptogenic mixture, p<0.0.1 escitalopram
Method: FIG. 2A: Effect of treatment in the novel open field Test following one week of treatment. FIG. 2B: Effect of treatment in the novel open field Test following two weeks of treatment. […] Mice were treated through i.p. injection with the adaptogenic mixture (15 mg/kg/day), escitalopram (15 mg/kg/day) or vehicle. The acute stress was obtained with Yohimibine i.p injection, a drug known to activate a stress-reaction (Vasa et al., 2009). […] The Novel Open Field is another well-established test of anxiety-related behavior in rodents. The Open Field area generally consists of an empty and bright square arena, surrounded by walls to prevent the rodent from escaping. The rodent is usually placed in the center of the arena and its behavior recorded over a chosen period. The Novel Open Field task approaches the conflict between the innate fear that rodents have of the central area of a novel or brightly lit open field versus their desire to explore new environments. When anxious, the natural tendency of rodents is to prefer staying close to the walls. In this context, anxiety-related behavior is measured by the degree to which the rodent avoids the center of the arena.

Row | SMILES | Time inside the center of the arena, Open Field Test ([1]; MSP (chronically stressed) C57BL/6 mice, 10 mg/kg i.p. daily for two weeks, saline 1.8 seconds, n=16) [s] | Entries to the inside of the arena, Open Field Test ([1]; MSP C57BL/6 mice, 10 mg/kg i.p. daily for two weeks, saline 1.6 times, n=16) [times] | Time inside the center of the arena, Open Field Test ([1]; treated, unstressed mice, 10 mg/kg i.p., saline unstressed 4.5 seconds) [s] | Corticosterone levels following acute restraint stress [2] [ng/mL] | Sucrose consumption, sucrose test [3] [mL] | Time spent in the open arms in comparison to control group, elevated plus maze [4] | Corticosterone levels following acute restraint stress in comparison to control group [5] | Time spent in the open arms, Elevated Plus Maze [6] [s] | BDNF levels (hippocampus) [7] [pc/μg] | Time spent inside the field of the control group in comparison to the treated group, novel open field [8]
1 | CN(C)CCCC1(c2ccc(F)cc2)OCc2cc(C#N)ccc21 (stereo not shown) [Citalopram] | 2.5 | 2.4 | 4.6 | – | – | – | – | – | – | –
2 | CN(C)CCC[C@@]1(c2ccc(F)cc2)OCc2cc(C#N)ccc21 [escitalopram, Escitalopram] | – | – | – | 77.3 | 55 | significantly more time; also recorded: same effect | significantly lower; also recorded: same effect | 64 | 16 | significantly less pronounced
